# Experimental data reported in US12514907B2, “Treatment of exercise-induced hypoglycemia in type 1 and insulin using type 2 diabetes” (Xeris Pharmaceuticals, Inc., priority 2017, dated 2026).
# What was measured:
# [1] = tested on: patients with T1D; assay: Plasma glucose (YSI analyzer) during exercise/early recovery and post meal, randomized 4-period crossover trial; format: in vivo, human
# Excerpt: Visit Schedule. (1) Screening/Baseline Visit. This visit will be used to assess eligibility and can include determination of VO2 max for fitness evaluation and for the determination of exercise intensity for the study. (2) Randomized Crossover Trial. Each participant will undergo four aerobic exercise sessions (in random order), with different strategies for glucose regulation that include: (i) Control: Fasted exercise, no basal insulin reduction; (ii) Strategy 1: Fasted exercise, basal insulin reduction only (50% reduction in basal rate five minutes before exercise, for the duration of the exercise); (iii) Strategy 2: Fasted exercise, no basal adjustment+pre-exercise glucose tabs (buccal route-40 grams in total); (iv) Strategy 3: Fasted exercise, no basal adjustment+pre-exercise mini-dose glucagon (sc). In all 4 sessions, aerobic exercise will be performed in the fasted state (before a standardized meal) for 45 minutes at ˜50-55% of the participant's predetermined aerobic capacity. The strategies for select sessions will be blinded. Sample collection. Blood samples collected through a venous catheter with plasma glucose measured by an YSI analyzer. Blood samples will be collected at: Baseline (at −30, −15, −5, 0 min), During exercise (at 5, 10, 15, 25, 35, 45 min), In recovery post exercise (at 50, 55, 60, 75 min), Regularly following a standardized mixed meal for 90 minutes (at 90, 105, 120, 135, and 165 min). Plasma from the collected blood samples will be used to measure the following hormones, proinflammatory markers and metabolites at baseline, during exercise, in recovery post exercise, and regularly following the standardized mixed meal: Insulin, Glucagon, Cortisol, Growth hormone, Catecholamines (epinephrine and norepinephrine), Interleukin-6, tumor necrosis factor-α, Nonesterified fatty acids, β-hydroxybutyrate, and/or Lactate. […]
# [2] = tested on: patients with T1D; assay: CGM metrics after exercise session, randomized 4-period crossover trial of mini-dose glucagon in T1D; format: in vivo, human; conditions: no statistically significant differences
# Excerpt: Visit Schedule. (1) Screening/Baseline Visit. This visit will be used to assess eligibility and can include determination of VO2 max for fitness evaluation and for the determination of exercise intensity for the study. (2) Randomized Crossover Trial. Each participant will undergo four aerobic exercise sessions (in random order), with different strategies for glucose regulation that include: (i) Control: Fasted exercise, no basal insulin reduction; (ii) Strategy 1: Fasted exercise, basal insulin reduction only (50% reduction in basal rate five minutes before exercise, for the duration of the exercise); (iii) Strategy 2: Fasted exercise, no basal adjustment+pre-exercise glucose tabs (buccal route-40 grams in total); (iv) Strategy 3: Fasted exercise, no basal adjustment+pre-exercise mini-dose glucagon (sc). In all 4 sessions, aerobic exercise will be performed in the fasted state (before a standardized meal) for 45 minutes at ˜50-55% of the participant's predetermined aerobic capacity. The strategies for select sessions will be blinded. The day before each exercise session participants will: Insert new insulin infusion set into abdomen or upper buttock (ensure not in exercising limb); For CGM users, insert a new CGM sensor; For non-CGM users, come into clinic to have a CGM sensor inserted to use with a blinded receiver. For participants using the blinded CGM, the sensor will be removed at 12:00 PM the next day at home (˜24 hours after the end of exercise). The participant will bring the device to the next visit or mail it back to the clinic. Participants will receive a phone call the day after each exercise session to elicit any adverse events. For CGM users, the CGM data will be downloaded at each visit and arrangements made to transmit the data following the last exercise session. The participant's insulin pump will be downloaded at each visit and arrangements made to transmit the data following the last exercise session. Subjects aged 18-<65 years with a duration of T1D ≥2 years, a random C-peptide <0.6 ng/ml, that use CSII (Insulin pump) for at least 6 months, with no plans to discontinue pump use during the study and exercise regularly, ≥30 minutes moderate or more vigorous aerobic activity X≥3 times/week were randomized in a 4-period crossover trial. The control was no basal insulin adjustment, no carbs unless glucose <70 mg/dL (then 20 g dextrose given). Basal Rate Reduction: Basal rate decreased by 50% 5 minutes before start of exercise (basal rate returned to usual rate at end of exercise). Glucose Tabs: Dextrose tabs orally (20 grams) 5 min before start of exercise and 20 grams again at 30 min after start. Mini-Dose Glucagon: Glucagon (150 μg) 5 min before start of exercise (SQ-abdomen). Exercise consisted of moderate intensity aerobic activity (treadmill brisk uphill walking) performed at 50-55% VO2 max for 45 min. Performed in fasted state. Same workload performed at each exercise session. Exercise was terminated if: glucose <70 mg/dL (participant treated for hypo) and/or participant experienced dizziness, pallor and other symptoms of poor perfusion and/or exercise intolerance. Following each exercise session, participants rested for 30 min and then consumed a standardized meal. Meal contained 44-50 grams of carbohydrate (55% of calories from carbohydrate, 20% from protein, and 25% from fat). Insulin is administered as pump bolus 5 min before standardized meal using participants own carbohydrate ratio with correction only if glucose ≥270 mg/dL.
# [3] = late recovery period (standard meal to noon the day after exercise session), mean
# [4] = late recovery period (standard meal to noon the day after exercise session), median
# [5] = overnight (midnight to 6 am the day after exercise session), mean
# [6] = overnight (midnight to 6 am the day after exercise session), median
substance,measurement,setting,value
glucagon [MDG],post-intervention hyperglycemia,[1]; compared with ingestion of carbohydrate,less post-intervention hyperglycemia than ingestion of carbohydrate
same,reducing exercise-induced hypoglycemia,[1]; compared with insulin reduction,more effective than insulin reduction
same,frequency of a drop in glucose concentration,"[1]; given just before aerobic exercise, people with type 1 diabetes",reduces the frequency of a drop in glucose concentration
same,% of time 70-180 mg/dL-mean,[2]; [3],66%
same,% of time <70 mg/dl-mean,[2]; [3],7%
same,Coefficient of Variation-median,[2]; [4],34%
same,"Mean Glucose, mg/dL-median",[2]; [4],150 mg/dL
same,"Nadir Glucose, mg/dL-median",[2]; [4],51 mg/dL
same,% of time 70-180 mg/dl-mean,[2]; [5],59%
same,% of time <70 mg/dl-mean,[2]; [5],4%
same,Coefficient of Variation-median,[2]; [6],21%
same,"Mean Glucose, mg/dl-median",[2]; [6],156 mg/dL
same,"Nadir Glucose, mg/dL-median",[2]; [6],91 mg/dL
same,Occurrence of Hypoglycemia (<70 mg/dL)-%,[2]; overnight (midnight to 6 am the day after exercise session),23%
